{"source": "patent US9808470B2", "about": "“Estrogenic components for use in the treatment of neurological disorders” (UNIVERSITE DE LIEGE, priority 2012, dated 2017)", "type_in_all_cases": "in vivo", "key": {"[1]": {"assay": "Ex.4 therapeutic HIE rat model: rectal temperature", "conditions": "E4 1, 5, 10, 50 mg/kg single ip dose after HI at PND7; 0, 2, 4 h after hypoxia", "protocol": "The rectal temperature of the rat pups was measured with a multipurpose thermometer (BAT-10R, Physitemp Instruments Inc., Clifton, N.J., US) along with a rectal probe (RET-4, BioMedical Instruments, Zollnitz, Germany) at 0, 2, and 4 hours after exposure to hypoxic insult. To keep the variability of the temperature low, measurements of rectal temperature were made in a 25° C. room 15 min after removal of the pups from the nest (except the 1st post-hypoxic measurement which was done immediately). It has been shown that the rectal temperature corresponds very well to the brain core temperature (Thoresen et al. 1996. Arch Dis Child Fetal Neonatal 74: F3-F9, Yager et al. 1993. Pediatr Res 34: 525-529).\nTo study the therapeutic effect of estetrol, newborn rat pups were assigned to one of the following 6 groups at postnatal day 7: sham group (n=29), vehicle group (n=20), 1 mg/kg E4 group (n=16), 5 mg/kg E4 group (n=19), 10 mg/kg day E4 (n=17) and 50 mg/kg day E4 group (n=15). At postnatal day 7 animals were anesthetized with isoflurane (induction, 3.0%; maintenance, 1.5%), and the rat pups from vehicle and E4 groups passed through surgery encompassing left common carotid artery double ligation and cut. After surgery, the pups were returned to their dams and allowed to recover for 1 hour. The pups were then placed in a humidified hypoxic in vivo cabinet (CoyLab). […]"}, "[2]": {"system": "intact cells in hippocampus and cortex", "assay": "Ex.4 therapeutic HIE rat model: intact cell counting", "protocol": "Paraformaldehyde-fixed paraffin embedded samples of the removed brains were coronally sectioned at the same level of the hippocampus region in accordance to the Paxinos rat brain atlas (Paxinos and Watson 2007. In: The rat brain in stereotaxic coordinates, 6th edition). Thickness of sections was 5 μm. Hematoxylin-eosin staining was performed. Briefly, sections were deparaffinized in xylene and rehydrated in graded ethanol concentrations before staining. Slides were stained with hematoxylin, rinsed for a few seconds in water, then placed in 1% eosin and washed, dehydrated, and coverslipped.\nIntact cell counting was performed on hematoxylin-eosin-stained sections of the rat pups brains at magnification 400× in 3 fields of the respective brain area. Countings were performed in cortex and hippocampus (regions: dentate gyrus (DG), subgranular zone (SGZ), cornu ammonis (CA1, CA2/CA3)). The sections were analyzed with the aid of a microscope (Olympus BX51, Olympus, Tokyo, Japan), an image scanner (DotSlide Digital Virtual Microscopy, Olympus, Germany) and ImageJ software (NIH, US).\nIntact cells are uninjured. Injured cells are characterized by a pale eosinophilic staining along with non-uniform nuclear densities-shrunken, condensed, or pale and enlarged.\nTo study the therapeutic effect of estetrol, newborn rat pups were assigned to one of the following 6 groups at postnatal day 7: sham group (n=29), vehicle group (n=20), 1 mg/kg E4 group (n=16), 5 mg/kg E4 group (n=19), 10 mg/kg day E4 (n=17) and 50 mg/kg day E4 group (n=15). At postnatal day 7 animals were anesthetized with isoflurane (induction, 3.0%; maintenance, 1.5%), and the rat pups from vehicle and E4 groups passed through surgery encompassing left common carotid artery double ligation and cut. After surgery, the pups were returned to their dams and allowed to recover for 1 hour. The pups were then placed in a humidified hypoxic in vivo cabinet (CoyLab). Hypoxia was produced by the inhalation of 11%-8% of oxygen balanced by nitrogen at decreased concentration of oxygen for 20 minutes, followed by inhalation of 8% oxygen and 92% nitrogen at constant concentration for 35 minutes. All the manipulations were performed at 37° C.\nUpon retrieval from the hypoxia chamber the rat pups were injected intraperitoneally either by vehicle (vehicle group) or by E4 (1 mg/kg, 5 mg/kg, 10 mg/kg or 50 mg/kg) in accordance to the group assignment. The animals from the sham group went through similar procedures but proceeded neither left common carotid artery ligation and cut followed by hypoxia nor vehicle or estetrol administration. Rat pups recovered with their dams until being sacrificed at postnatal day 14."}, "[3]": {"system": "myelin-related mRNA (CNP, MAG, MBP)", "assay": "Ex.6 IL-1β induced diffuse white matter injury mouse model: myelin gene expression at P10 (qRT-PCR)", "protocol": "Experimental protocols were approved by the institutional guidelines of the Institut National de la Santé et de la Recherche Scientifique (Inserm, France), and met the guidelines for the United States Public Health Service's Policy on Humane Care and Use of Laboratory Animals (NIH, Bethesda, Md., USA). Experiments were performed using OF1 strain mice purchased from Charles River (L'Arbresle, France) and born in our animal facility. Animals were housed under a 12 h light-dark cycle, had access to food and water ad libitum. Sex was determined at birth and confirmed at sacrifice. To avoid any potential variability linked to sex to differences. only male pups were used. Mice received twice a day from P1 to P4 and once on P5 a 5 μl intraperitoneal injection containing either PBS alone (sham group) or 10 μg/kg/dose recombinant mouse IL-1β in PBS. Vehicle group received only IL-1β injections while 10 μg E4 (5 mg/kg) or 20 μg E4 (10 mg/kg) was added to IL-1β once a day from P1 to P5 for E4 treated groups. Pups were sacrificed 3 hours after the first intraperitoneal injection at P1, 3 hours after last treatment at P5 or at P10 by intracardiac perfusion with NaCl 0.9% after anaesthesia by inhaled isoflurane.\nAt P10, anterior cortex and underneath white matter were collected and immediately frozen in nitrogen liquid, before storage at −80° C. for study of myelin-related mRNA expression.\nPreparation of samples for quantitative reverse-transcriptase polymerase-chain reaction (qRT-PCR), primer design, and PCR protocol, were similar to that previously described (Favrais et al., 2011; Chhor et al., 2013). Briefly, RNA extraction was performed by with RNeasy mini kit according to the manufacturer's instructions (Qiagen, Courtaboeuf, France). RNA quality and concentration were assessed by spectrophotometry with the Nanodrop™ apparatus (Thermoscientific, Wilmington, Del., USA). Total RNA (0.5-1 μg) was subjected to reverse transcription using the iScript™ cDNA synthesis kit (Bio-Rad, Marnes-la-Coquette, France). qPCR was using SYBR Green Supermix (Bio-Rad). The relative expression of genes of interest (GOI) were expressed relative to expression of the reference gene, ribosomal protein L13a (Rpl13a) for CD11b+ cells and Glyceraldehyde 3-phosphate dehydrogenase (GAPDH) for O4+ cells and anterior brains based on reference gene suitability testing. Analyses were performed with the Biorad CFX manager 2.1 software. The relative quantities are expressed as the specific ratio between the gene of interest and Rpl13 or GAPDH. The data are presented as relative mRNA units with respect to control values (expressed as a fold-difference with respect to the mean of sham values)."}}, "data": [{"smiles": "C[C@]12CC[C@@H]3c4ccc(O)cc4CC[C@H]3[C@@H]1[C@@H](O)[C@@H](O)[C@@H]2O", "note": "[E4, 1,3,5(10)-estratrien-3,15α,16α,17β-tetrol]", "values": [{"measurement": "rectal temperature", "setting": "[1]", "result": "did not affect the body temperature"}, {"measurement": "number of intact cells per visual field", "setting": "[2]; 1 mg/kg E4 single ip dose after HI, CA1", "result": "51.5±2.5"}, {"measurement": "number of intact cells per visual field", "setting": "[2]; 1 mg/kg E4 single ip dose after HI, CA2/CA3", "result": "33.9±4.306"}, {"measurement": "number of intact cells per visual field", "setting": "[2]; 1 mg/kg E4 single ip dose after HI, cortex", "result": "42.4±4.865"}, {"measurement": "number of intact cells per visual field", "setting": "[2]; 5 mg/kg E4 single ip dose after HI, CA1", "result": "45.3±2.989"}, {"measurement": "number of intact cells per visual field", "setting": "[2]; 5 mg/kg E4 single ip dose after HI, CA2/CA3", "result": "33.8±4.704"}, {"measurement": "number of intact cells per visual field", "setting": "[2]; 5 mg/kg E4 single ip dose after HI, cortex", "result": "57.1±7.012"}, {"measurement": "number of intact cells per visual field", "setting": "[2]; 10 mg/kg E4 single ip dose after HI, CA1", "result": "46.0±3.19"}, {"measurement": "number of intact cells per visual field", "setting": "[2]; 10 mg/kg E4 single ip dose after HI, CA2/CA3", "result": "35.2±3.169"}, {"measurement": "number of intact cells per visual field", "setting": "[2]; 10 mg/kg E4 single ip dose after HI, cortex", "result": "56.9±5.958"}, {"measurement": "number of intact cells per visual field", "setting": "[2]; 50 mg/kg E4 single ip dose after HI, CA1", "result": "46.6±5.336"}, {"measurement": "number of intact cells per visual field", "setting": "[2]; 50 mg/kg E4 single ip dose after HI, CA2/CA3", "result": "30.5±2.527"}, {"measurement": "number of intact cells per visual field", "setting": "[2]; 50 mg/kg E4 single ip dose after HI, cortex", "result": "54.5±3.403"}, {"measurement": "CNP mRNA", "setting": "[3]; E4 5 mg/kg, vs IL-1β", "result": "significant increase"}, {"measurement": "MAG mRNA", "setting": "[3]; E4 5 mg/kg, vs IL-1β", "result": "significant increase"}, {"measurement": "MBP expression", "setting": "[3]; E4 5 mg/kg, vs control group", "result": "not statistically different"}, {"measurement": "MBP expression, increase", "setting": "[3]; E4 5 mg/kg, vs vehicle group (p=0.11)", "result": "not significant"}, {"measurement": "expression of myelin genes (MAG, MBP, CNP)", "setting": "[3]; IL-1β+E4 10 mg/kg, vs IL-1β", "result": "No difference"}]}]}
